# Reference: patent US9394555B2, “Compositions comprising a polypeptide having cellulolytic enhancing activity and a dioxy compound and uses thereof” (priority 2010, dated 2016)
# Where two headings read alike, the source gives them in different places.
# Columns and labels:
# [1] = biological target: T1, T. aurantiacus GH61A polypeptide (Thermoascus aurantiacus, UniProt G3XAP7, N13Y); format: biochemical; details: for dioxy compound effect(no GH61): AVICEL 29.5 mg cellulose per ml; for dioxy compound effect(no GH61) / hydrolysis of AVICEL in the presence of both T. aurantiacus GH61A polypeptide and dioxy compound relative to inhibition by the dioxy compound: dioxy compound 1 mM; for dioxy compound effect(no GH61) (Equation 3), ratio of percent conversion with/without dioxy compound: day 1 to day 8; for hydrolysis of AVICEL in the presence of both T. aurantiacus GH61A polypeptide and dioxy compound relative to inhibition by the dioxy compound: GH61A polypeptide 2 mg per g cellulose, cellulose 29.5 mg per ml
# T1 sequence (G3XAP7 whole entry N13Y): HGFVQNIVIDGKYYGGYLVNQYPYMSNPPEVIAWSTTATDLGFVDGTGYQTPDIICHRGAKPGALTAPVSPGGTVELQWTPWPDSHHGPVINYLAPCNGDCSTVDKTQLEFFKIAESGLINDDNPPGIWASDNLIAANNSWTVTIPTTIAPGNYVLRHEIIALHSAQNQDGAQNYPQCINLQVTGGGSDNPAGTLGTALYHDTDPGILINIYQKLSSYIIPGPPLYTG
# Protocol: The cellulase preparation is designated herein as “Trichoderma reesei cellulase composition” unless specified otherwise.
# Later experiments were mixed thoroughly prior to incubation in an IsoTemp incubator (Fisher Scientific, Hampton, N.H., USA) and prior to sampling for analysis, but were not continuously mixed.
# Data were processed using MICROSOFT EXCEL™ software.
# [2] = biological target: T1, T. aurantiacus GH61A polypeptide; assay: Microcrystalline cellulose conversion assay II (Examples 10, 11), T. reesei CEL7A cellobiohydrolase I + A. oryzae CEL3A beta-glucosidase; format: biochemical; details: dioxy compound 0.1% w/w alone, no enzymes; 72 hours, 50° C.
# Protocol: A 5% microcrystalline cellulose slurry was prepared by addition of 2.5 g of AVICEL® PH101 to a graduated 50 ml screw-cap conical tube followed by approximately 40 ml of deionized water. Each conical tube was then mixed thoroughly by shaking/vortexing, and adjusted to 50 ml total with deionized water and mixed again. For samples containing dioxy compounds, a similar slurry was prepared by the addition of 100 mg of solid dioxy compound and 2.5 g of AVICEL® PH101 to a graduated 50 ml screw-cap conical tube followed by approximately 40 ml of deionized water. Each conical tube was then mixed thoroughly by shaking/vortexing, and adjusted to 50 ml total with deionized water and mixed again.
# The dioxy compounds assayed include caffeic acid, dichlorophenolindophenol (DCPIP), ethyl gallate, gallic acid, 3,4-dihydroxybenzoic acid, pyrocatechol, pyrogallol, sinapinic acid (3,5 dimethoxy-4-hydroxy cinnamic acid), and tannic acid.
# In all cases, the contents of the tube (5% microcrystalline cellulose slurry with or without 0.2% dioxy compound) were then quickly transferred to a 100 ml beaker and stirred rapidly with a magnetic stirrer. Five hundred μl aliquots of the 5% AVICEL® slurry were pipetted into wells of a 2.0 ml 96-deepwell plate (Axygen, Union City, Calif.) using a 1000 μl micropipette with a wide aperture tip (end of tip cut off about 2 mm from the base). One hundred μl of deionized water and 300 μl of 3.33 mM MnSO4-500 mM sodium acetate pH 5 were then added to each well. Enzyme mixtures were prepared and then added simultaneously to all wells in a volume of 100 μl, for a total of 1 ml in each reaction. […] All experiments reported were performed in triplicate.
# Primary analysis of the hydrolysis reactions was performed using an AGILENT® 1100 HPLC with CHEMSTATION® software equipped with an AMINEX™ HPX-87H column. After approximately 4 days, the deep-well plate was removed from the incubator and chilled overnight to 4° C. The plate was then mixed well by inversion and briefly centrifuged at 52×g in a SORVALL® RT7 centrifuge for 10 seconds. Samples were then mixed by pipetting, and 200 μl from each well were transferred to a MULTISCREEN® HV centrifuge filter plate assembly. The centrifuge filter plate assembly was centrifuged at 2000 rpm in a SORVALL® RT7 centrifuge for 20 minutes. […] Sugars were detected using a refractive index detector with quantification by integration compared to purified sugar standards.
# All HPLC data processing was performed using MICROSOFT EXCEL™ software. […] In this assay only glucose was measured since beta-glucosidase was at high levels in all samples but the controls. The degree of cellulose conversion was calculated using Equation 1. Triplicate data points were averaged and standard deviation was calculated.
# The microcrystalline cellulose hydrolysis assay was performed as described in Example 10.
# Data were collected and analyzed, as described in Example 10, after 72 hours of incubation at 50° C.
# [3] = test system: T. terrestris GH61E polypeptide; assay: Microcrystalline cellulose conversion assay I (Examples 8, 9) with T. terrestris GH61E polypeptide; format: biochemical, Thielavia terrestris; details: 96 hours
# Protocol: (§1) A 5% microcrystalline cellulose slurry was prepared by addition of 2.5 g of AVICEL®PH101 (Sigma-Aldrich, St. Louis, Mo., USA) to a graduated 50 ml screw-cap conical tube followed by 15 ml of 1 M sodium acetate pH 5 and 1 ml of 100 mM MnSO4 and approximately 20 ml of deionizer water. Each conical tube was then mixed thoroughly by shaking/vortexing, and adjusted to 50 ml total with deionized water and mixed again. Contents of the tube were then quickly transferred to a 100 ml beaker and stirred rapidly with a magnetic stirrer. Five hundred μl aliquots of the 5% AVICEL® slurry were pipetted into wells of a 2.0 ml 96-deepwell plate (Axygen, Union City, Calif., USA) using a 1000 μl micropipette with a wide aperture tip (end of tip cut off about 2 mm from the base). Three hundred μl of either deionized water or a 1% dioxy compound solution (dissolved in deionized water) was added to each well.
# (§2) The dioxy compounds assayed include caffeic acid (Sigma-Aldrich, St. Louis, Mo., USA), dichlorophenolindophenol (DCPIP; Sigma-Aldrich, St. Louis, Mo., USA), ethyl gallate (Sigma-Aldrich, St. Louis, Mo., USA), gallic acid (Sigma-Aldrich, St. Louis, Mo., USA), 3,4-dihydroxybenzoic acid (Sigma-Aldrich, St. Louis, Mo., USA), pyrocatechol (Sigma-Aldrich, St. Louis, Mo., USA), pyrogallol (Sigma-Aldrich, St. Louis, Mo., USA), sinapinic acid (3,5 dimethoxy-4-hydroxy cinnamic acid; Apin Chemicals LTD, Abingdon, UK), and tannic acid (Sigma-Aldrich, St. Louis, Mo., USA).
# (§3) Enzyme mixtures were prepared and then added simultaneously to all wells in a volume of 200 μl, for a total of 1 ml in each reaction. […] All experiments reported were performed in triplicate.
# (§4) After approximately 4 days, the deep-well plate was removed from the incubator and chilled overnight to 4° C. The plate was then mixed well by inversion and briefly centrifuged at 52×g in a SORVALL® RT7 centrifuge (Thermo Fisher Scientific, Waltham, Mass., USA) for 10 seconds. Samples were then mixed by pipetting, and 200 μl from each well were transferred to a MULTISCREEN® HV centrifuge filter plate assembly (Millipore, Bedford, Mass., USA). The centrifuge filter plate assembly was centrifuged at 2000 rpm in a SORVALL® RT7 centrifuge for 20 minutes. […] Sugars were detected using a refractive index detector (Agilent Technologies, Inc., Santa Clara, Calif., USA) with quantification by integration compared to purified sugar standards.
# (§5) In this assay only glucose was measured since beta-glucosidase was at high levels in all samples but the controls.
# (§6) A limit digest was performed to determine the total concentration accessible glucose equivalents using 100 mg of T. reesei cellulase (CELLIC™ CTec, Novozymes A/S, Bagsvaerd, Denmark) per gram cellulose, Triplicate data points were averaged and standard deviation was calculated.
# [4] = test system: T. aurantiacus CEL5A endoglucanase II and P. brasilianum CEL3A beta-glucosidase; assay: Microcrystalline cellulose conversion assay I (Examples 8, 9) without GH61 polypeptide; format: biochemical, Thermoascus aurantiacus; Penicillium brasilianum; details: dioxy compound 0.3% w/w + endoglucanase II + beta-glucosidase (5 mg/g each), no GH61; 96 hours, at either 50° C. or 60° C.
# Protocol: as §1, §2, §3, §4, §5, §6
# [5] = AVICEL, T. reesei cellulase composition, dioxy compound 5 mM, T. aurantiacus GH61A polypeptide present, day 1
# [6] = AVICEL, T. reesei cellulase composition, dioxy compound 5 mM, T. aurantiacus GH61A polypeptide present, day 5
# [7] = AVICEL, T. reesei cellulase composition, dioxy compound 5 mM, T. aurantiacus GH61A polypeptide present, day 8
# [8] = AVICEL, T. reesei cellulase composition, dioxy compound 5 mM
# [9] = AVICEL, T. reesei cellulase composition, dioxy compound 5 mM, day 5 (Example 24)
# [10] = AVICEL 14 mg cellulose per ml, dioxy compound 5 mM, T. aurantiacus GH61A polypeptide 0.4 mg per g cellulose, 1, 3, and 7 days
molecule,measurement,setting,value
"O=C(O)C(O)C(O)C(=O)O (stereo not shown) [tartrate, tartaric acid]",dioxy compound effect(no GH61),[1]; 3 days,0.984±0.00843
same,dioxy compound effect(no GH61),[1]; 7 days,1.02±0.0573
"O=[N+]([O-])c1ccc(O)c(O)c1 [4-nitro-1,2-benzenediol]",dioxy compound effect(+GH61) (Equation 4),[1]; [5],less than 1
same,dioxy compound effect(+GH61) (Equation 4),[1]; [6],less than 1
same,dioxy compound effect(+GH61) (Equation 4),[1]; [7],less than 1
same,"dioxy compound effect(no GH61) (Equation 3), ratio of percent conversion with/without dioxy compound",[1]; [8],less than 1
same,GH61 effect (Equation 5),[1]; [9],greater than 1
same,GH61 effect (Equation 5),"[1]; AVICEL, T. reesei cellulase composition, dioxy compound 5 mM, day 8 (Example 24)",greater than 1
"O=C(O)c1ccc(O)c(O)c1 [3,4-dihydroxybenzoic acid]",conversion (hydrolysis) of the microcrystalline cellulose,[2],no significant hydrolysis
"CC(O)CC(C)O (stereo not shown) [2,4-pentanediol]",dioxy compound effect(+GH61) (Equation 4),[1]; [10],greater than 1
same,GH61 effect (Equation 5),"[1]; AVICEL 14 mg cellulose per ml, dioxy compound 5 mM, T. aurantiacus GH61A polypeptide 0.4 mg per g cellulose, later hydrolysis stages (day 7)",greater than 1
same,dioxy compound effect(no GH61) (Equation 3),"[1]; AVICEL 14 mg cellulose per ml, dioxy compound 5 mM, day 1",greater than 1
"CCOCC(O)CO (stereo not shown) [3-ethoxy-1,2-propanediol, 3-ethyoxy-1,2-propanediol]",dioxy compound effect(no GH61),[1]; 3 days,1.11±0.0167
same,dioxy compound effect(no GH61),[1]; 7 days,1.20±0.0210
"COc1cc(C=CC(=O)O)cc(OC)c1O [sinapinic acid, 3,5 dimethoxy-4-hydroxy cinnamic acid]",conversion of microcrystalline cellulose,"[3]; dioxy compound 0.3% w/w + T. terrestris GH61E polypeptide (10 mg/g) + endoglucanase II + beta-glucosidase (5 mg/g each), 50° C.",6.3±0.1%
same,conversion of microcrystalline cellulose,"[3]; dioxy compound 0.3% w/w + T. terrestris GH61E polypeptide (10 mg/g) + endoglucanase II + beta-glucosidase (5 mg/g each), 60° C.",9.2±0.1%
same,change in conversion of microcrystalline cellulose compared to the enzymes in the absence of the dioxy compound,[4],no significant change
"O=C1C=CC(=Nc2cc(Cl)c(O)c(Cl)c2)C=C1 [DCPIP, dichlorophenolindophenol]",conversion (hydrolysis) of the microcrystalline cellulose,[2],no significant hydrolysis
COC(=O)c1ccc(O)cc1 [methyl-4-hydroxybenzoate],hydrolysis of AVICEL in the presence of both T. aurantiacus GH61A polypeptide and dioxy compound relative to inhibition by the dioxy compound,[1],overall enhancement of cellulolysis
"Oc1ccc(Cl)cc1O [4-chloro-1,2-benzenediol]",dioxy compound effect(+GH61) (Equation 4),[1]; [5],increased
same,dioxy compound effect(+GH61) (Equation 4),[1]; [6],less than 1
same,dioxy compound effect(+GH61) (Equation 4),[1]; [7],less than 1
same,"dioxy compound effect(no GH61) (Equation 3), ratio of percent conversion with/without dioxy compound",[1]; [8],less than 1
same,"GH61 effect (Equation 5), ratio of percent conversion with/without GH61 polypeptide","[1]; AVICEL, T. reesei cellulase composition, dioxy compound 5 mM, day 1 (Example 24)",greater than 1
same,GH61 effect (Equation 5),[1]; [9],greater than 1
"COc1cccc(OC)c1O [2,6-dimethoxyphenol]",hydrolysis of AVICEL in the presence of both T. aurantiacus GH61A polypeptide and dioxy compound relative to inhibition by the dioxy compound,[1],overall enhancement of cellulolysis
"OCCCO [1,3-propanediol]",dioxy compound effect(+GH61) (Equation 4),[1]; [10],greater than 1
same,GH61 effect (Equation 5),"[1]; AVICEL 14 mg cellulose per ml, dioxy compound 5 mM, T. aurantiacus GH61A polypeptide 0.4 mg per g cellulose, 1, 3, and 7 days, increasing as hydrolysis progressed",greater than 1
same,dioxy compound effect(no GH61) (Equation 3),"[1]; AVICEL 14 mg cellulose per ml, dioxy compound 5 mM, 1, 3, and 7 days, especially early stages",greater than 1
"T. terrestris GH61E polypeptide: GH61E polypeptide having cellulolytic enhancing activity (SEQ ID NO: 8), recombinantly produced in Aspergillus oryzae JaL250 (protein, listed as Thielavia terrestris) MLANGAIVFLAAALGVSGHYTWPRVNDGADWQQVRKADNWQDNGYVGDVTSPQIRCFQATPSPAPSVLNTTAGSTVTYWANPDVYHPGPVQFYMARVPDGEDINSWNGDGAVWFKVYEDHPTFGAQLTWPSTGKSSFAVPIPPCIKSGYYLLRAEQIGLHVAQSVGGAQFYISCAQLSVTGGGSTEPPNKVAFPGAYSATDPGILINIYYPVPTSYQNPGPAVFSC",conversion of microcrystalline cellulose,"[3]; T. terrestris GH61E polypeptide (10 mg per g cellulose) + endoglucanase II + beta-glucosidase (5 mg/g each), no dioxy compound, 50° C.",2.8±0.1%
same,conversion of microcrystalline cellulose,"[3]; T. terrestris GH61E polypeptide (10 mg per g cellulose) + endoglucanase II + beta-glucosidase (5 mg/g each), no dioxy compound, 60° C.",3.1±0.1%
